Reference: ChEMBL document CHEMBL1201862, “PubChem BioAssay data set” (2004)
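How tested: cells in 96-well plates exposed to compound for 48 hours at five concentrations. Here, GI50 denotes the concentration required for 50% inhibition of growth.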 The source made the active and inactive calls. Cut-off read from the data, not from the text of the source: active = GI50 up to about 1.1 µM and inactive = higher. Square brackets hold non-standard residues; d marks the D form. Peptide text beside a SMILES is read from it. * marks the point of attachment. ξ: configuration not given here. NMeN = CN[C@@H](CC(N)=O)C(=O)O; NMeV = CN[C@H](C(=O)O)C(C)C; ξNMeV = CNC(C(=O)O)C(C)C; Boc = CC(C)(C)OC(=O)*; ξNMeA = CNC(C)C(=O)O

What was measured:
Experiment in all cases: growth of human tumour cells (NCI), 48 h
SF-268 = tested on: SF-268
MCF7 = tested on: MCF7
K562 = tested on: K562
786-0 = tested on: 786-0
MOLT-4 = tested on: MOLT-4
SW-620 = tested on: SW-620
NCI-H460 = tested on: NCI-H460
SK-MEL-28 = tested on: SK-MEL-28
TK-10 = tested on: TK-10
LOX IMVI = tested on: LOX IMVI
OVCAR-8 = tested on: OVCAR-8
CCRF-CEM = tested on: CCRF-CEM
SF-295 = tested on: SF-295
OVCAR-4 = tested on: OVCAR-4
SK-MEL-5 = tested on: SK-MEL-5
HL-60 = tested on: HL-60
A549 = tested on: A549
UACC-257 = tested on: UACC-257
Malme-3M = tested on: Malme-3M
SR = tested on: SR

SMILES	GI50 (SF-268)	GI50 (MCF7)	GI50 (K562)	GI50 (786-0)	GI50 (MOLT-4)	GI50 (SW-620)	GI50 (NCI-H460)	GI50 (SK-MEL-28)	GI50 (TK-10)	GI50 (LOX IMVI)	GI50 (OVCAR-8)	GI50 (CCRF-CEM)	GI50 (SF-295)	GI50 (OVCAR-4)	GI50 (SK-MEL-5)	GI50 (HL-60)	GI50 (A549)	GI50 (UACC-257)	GI50 (Malme-3M)	GI50 (SR)
Cc1nn(-c2ccccc2)c(C)c1/C=N/NC(=O)c1sc(=S)n(-c2ccccc2)c1N	5.22 µM (inactive)	5.65 µM (inactive)	0.681 µM (active)	3.78 µM (inactive)	5.58 µM (inactive)	45.5 µM (inactive)	3.08 µM (inactive)	3.25 µM (inactive)	1.63 µM (inactive)	2.09 µM (inactive)	4.69 µM (inactive)	5.16 µM (inactive)	2.42 µM (inactive)	2.69 µM (inactive)	4.06 µM (inactive)	20.5 µM (inactive)	3.9 µM (inactive)	4.9 µM (inactive)	3.58 µM (inactive)	3.94 µM (inactive)
C[n+]1c(/C=C/c2ccc(O)c3ncccc23)[se]c2ccccc21	4.91 µM (inactive)	1.58 µM (inactive)	5.11 µM (inactive)	2.99 µM (inactive)	1.94 µM (inactive)	3.98 µM (inactive)	2.51 µM (inactive)	11.4 µM (inactive)	3.1 µM (inactive)	2.33 µM (inactive)	2.87 µM (inactive)	0.92 µM (active)	8.57 µM (inactive)	4.2 µM (inactive)	7.76 µM (inactive)	2.55 µM (inactive)	7.06 µM (inactive)	2.29 µM (inactive)	4.01 µM (inactive)	1.64 µM (inactive)
COc1cc2c(c3c1c(=O)c1ccccc1n3C)C=CC1(CCCC1)O2	18.8 µM (inactive)	16 µM (inactive)	7.5 µM (inactive)	6.56 µM (inactive)	26.2 µM (inactive)	20.4 µM (inactive)	10.2 µM (inactive)	13.9 µM (inactive)	15.6 µM (inactive)	1.02 µM (active)	18.4 µM (inactive)	9.82 µM (inactive)	3.63 µM (inactive)	12.2 µM (inactive)	12.9 µM (inactive)	7.29 µM (inactive)	19.7 µM (inactive)	15.9 µM (inactive)	16.4 µM (inactive)	7.94 µM (inactive)
Nc1nc(-c2ccccc2)cc(-c2ccc(F)cc2)c1-c1ccc(Cl)cc1	> 100 µM (inactive)	41.7 µM (inactive)	12.5 µM (inactive)	88.3 µM (inactive)	5.57 µM (inactive)	> 100 µM (inactive)	31.3 µM (inactive)	> 100 µM (inactive)	> 100 µM (inactive)	> 100 µM (inactive)	> 100 µM (inactive)	33.2 µM (inactive)	41.6 µM (inactive)	88.9 µM (inactive)	> 100 µM (inactive)	21.4 µM (inactive)	> 100 µM (inactive)	> 100 µM (inactive)	> 100 µM (inactive)	22.2 µM (inactive)
Cc1noc2nnn(-c3ccc(Cl)cc3)c(=O)c12	6.98 µM (inactive)	2.67 µM (inactive)	1.3 µM (inactive)	2.45 µM (inactive)	0.364 µM (active)	0.67 µM (active)	6.43 µM (inactive)	10.8 µM (inactive)	9.06 µM (inactive)	2.5 µM (inactive)	2.69 µM (inactive)	0.355 µM (active)	12.3 µM (inactive)	3.18 µM (inactive)	3.82 µM (inactive)	1.39 µM (inactive)	12.1 µM (inactive)	7.5 µM (inactive)	11.9 µM (inactive)	1.21 µM (inactive)
C=C(CCCCCCCCC)CC(=O)SCCNC(=O)CCNC(=O)C(O)C(C)(C)COP(=O)(O)OP(=O)(O)OCC1OC(n2cnc3c(N)ncnc32)C(O)C1OP(=O)(O)O (stereo not given)	8.73 µM (inactive)	> 87.5 µM (inactive)	> 31.6 µM (inactive)	69.5 µM (inactive)	> 57.1 µM (inactive)	> 100 µM (inactive)	35.4 µM (inactive)	10.4 µM (inactive)	> 100 µM (inactive)	38.3 µM (inactive)	58.2 µM (inactive)	> 70.6 µM (inactive)	57.4 µM (inactive)	60.4 µM (inactive)	31.6 µM (inactive)	36.1 µM (inactive)	> 92.5 µM (inactive)	48.1 µM (inactive)	> 100 µM (inactive)	36.4 µM (inactive)
COC(=O)C(C)N(C)C(=O)[C@H](CC(N)=O)N(C)C(=O)[C@@H]1CCCN1C(=O)[C@H](C(C)C)N(C)C(=O)C(C(C)C)N(C)C(=O)[C@@H](NC(=O)OC(C)(C)C)C(C)C (stereo not given in full) (Boc-V[ξNMeV][NMeV]P[NMeN][ξNMeA]-OMe)	> 100 µM (inactive)	> 50 µM (inactive)	43.4 µM (inactive)	> 50 µM (inactive)	9.93 µM (inactive)	> 50 µM (inactive)	> 50 µM (inactive)	> 50 µM (inactive)	> 50 µM (inactive)	23.9 µM (inactive)	> 100 µM (inactive)	> 50 µM (inactive)	> 50 µM (inactive)	> 100 µM (inactive)	31.7 µM (inactive)	15.1 µM (inactive)	37.5 µM (inactive)	> 50 µM (inactive)	> 100 µM (inactive)	> 100 µM (inactive)
Cc1cn(CCC(N)C(=O)O)c(=O)[nH]c1=O (stereo not given)	> 100 µM (inactive)	> 100 µM (inactive)	> 100 µM (inactive)	> 100 µM (inactive)	> 100 µM (inactive)	> 100 µM (inactive)	> 100 µM (inactive)	> 100 µM (inactive)	> 100 µM (inactive)	> 100 µM (inactive)	> 100 µM (inactive)	> 100 µM (inactive)	> 100 µM (inactive)	> 100 µM (inactive)	> 100 µM (inactive)	> 100 µM (inactive)	> 100 µM (inactive)	> 100 µM (inactive)	> 100 µM (inactive)	> 100 µM (inactive)
Nc1ccc2nc3n(c2c1)C(c1c(F)cccc1F)SC3 (stereo not given)	> 100 µM (inactive)	> 100 µM (inactive)	85.5 µM (inactive)	> 100 µM (inactive)	38.1 µM (inactive)	> 100 µM (inactive)	> 100 µM (inactive)	> 100 µM (inactive)	> 100 µM (inactive)	> 100 µM (inactive)	> 100 µM (inactive)	68.2 µM (inactive)	98.9 µM (inactive)	> 100 µM (inactive)	41 µM (inactive)	45.3 µM (inactive)	> 100 µM (inactive)	89.1 µM (inactive)	> 100 µM (inactive)	> 100 µM (inactive)
NCCCN1CCN(CC(=O)O)CCN(CCCN)CCN(CC(=O)O)CC1	> 100 µM (inactive)	44.1 µM (inactive)	6.67 µM (inactive)	6.93 µM (inactive)	7.14 µM (inactive)	9.91 µM (inactive)	6.75 µM (inactive)	> 100 µM (inactive)	> 100 µM (inactive)	> 100 µM (inactive)	> 86.1 µM (inactive)	> 91.6 µM (inactive)	> 93.3 µM (inactive)	> 100 µM (inactive)	4.5 µM (inactive)	15.3 µM (inactive)	5.52 µM (inactive)	> 100 µM (inactive)	25.5 µM (inactive)	> 26.9 µM (inactive)
